From article PMC8516514 (Clinical Infectious Diseases: An Official Publication of …, 2020)
Where “and” joins values, the source holds several entries; their conditions need not be identical. Equal values may be shown once.

Key:
[1] = baseline ALT 27–45 IU/mL; cited from earlier work
HBV [2] = tested on: HBV
HBV [3] = experiment: Change in serum HBsAg, phase 1b study in patients with chronic HBV infection; assay type: in vivo, human
HBV [4] = experiment: Change in serum HBV pgRNA, phase 1b study in patients with chronic HBV infection; assay type: in vivo, human
[5] = Plasma pharmacokinetics of GLS4 in patients with chronic HBV infection; assay type: in vivo, human; conditions: for AUC0–24 / AUC0–t / Cmax / Ctrough / t1/2 / Df (degree of fluctuation): mean (CV)
[6] = Safety and tolerability in patients with chronic HBV infection; assay type: in vivo, human; conditions: for effect of silibinin and glutathione treatment on ALT flares: subjects with ALT flares, decline in ALT level
HBV [7] = experiment: Change in serum HBV DNA, phase 1b study in patients with chronic HBV infection; assay type: in vivo, human
HBV [8] = experiment: Change in serum HBcrAg, phase 1b study in patients with chronic HBV infection; assay type: in vivo, human
HBV in HepG2.2.15 cell = conditions: cited from earlier work
[9] = preclinical study in dogs; cited from earlier work
HBV [10] = experiment: Change in serum HBeAg, phase 1b study in patients with chronic HBV infection; assay type: in vivo, human
[11] = Phase Ia tolerability in healthy subjects; assay type: in vivo, human; conditions: 9 days, unpublished observations
[12] = Phase Ia pharmacokinetics of GLS4 in healthy subjects; assay type: in vivo, human; conditions: for mean steady-state Cmin: unpublished observations
HBV [13] = conditions: after NVR 3–778 treatment; cited from earlier work
HBV [14] = conditions: cited from earlier work
[15] = cohort A: GLS4 120 mg/day + ritonavir 100 mg/day
[16] = cohort B: GLS4 240 mg/day + ritonavir 100 mg/day
[17] = cohort A (GLS4 120 mg/day + ritonavir 100 mg/day), Day 1 (24 Hours)
[18] = cohort A (GLS4 120 mg/day + ritonavir 100 mg/day), Day 28 (24 Hours)
[19] = cohort A (GLS4 120 mg/day + ritonavir 100 mg/day), Day 28 (120 Hours)
[20] = cohort B (GLS4 240 mg/day + ritonavir 100 mg/day), Day 1 (24 Hours)
[21] = cohort B (GLS4 240 mg/day + ritonavir 100 mg/day), Day 28 (24 Hours)
[22] = cohort B (GLS4 240 mg/day + ritonavir 100 mg/day), Day 28 (120 Hours)
[23] = cohort A: GLS4 120 mg/day + ritonavir 100 mg/day, n=8
[24] = cohort B: GLS4 240 mg/day + ritonavir 100 mg/day, n=8
[25] = cohort C: entecavir 0.5 mg/day, n=8

**Q.** Which “ALT flare in phase I clinical study” value [1] does the source give for `O=C(NCc1cnc(C(F)(F)F)s1)c1ccc2c(c1)NC(=O)c1ccccc1S2(=O)=O` [ABI-H0731] here?
**A.** without ALT flare

**Q.** For `CCOC(=O)C1=C(CN2CCOCC2)NC(c2nccs2)=NC1c1ccc(F)cc1Br` (centres unmarked) [GLS4], which “efficacy in patients resistant to lamivudine or adefovir dipivoxil treatment” value (HBV [2]; cohort A: patient 013, cohort B: patient 020) is on record?
**A.** effective

**Q.** What about the “GLS4 resistance among patients” value (HBV [2]; cohorts A and B, 28 days of treatment) of the same compound?
**A.** not observed

**Q.** And the “mean decline in HBsAg after 28 days of treatment” value (HBV [3]; [15])?
**A.** −0.06 log10 IU/mL

**Q.** And the “mean decline in HBsAg after 28 days of treatment” value (HBV [3]; [16])?
**A.** −0.14 log10 IU/mL

**Q.** And the “mean decline in pgRNA after 28 days of treatment” value (HBV [4]; [15])?
**A.** −0.75 log10 copies/mL

**Q.** What about the “mean decline in pgRNA after 28 days of treatment” value (HBV [4]; [16]) of the same compound?
**A.** −1.78 log10 copies/mL

**Q.** And the “Median Tmax (minimum–maximum)” value [5, 17]?
**A.** 3 (1.5,4) hours

**Q.** What about the “AUC0–24” value [5, 17] of the same compound?
**A.** 4268 (27) ng × hours/mL

**Q.** And the “AUC0–t” value [5, 17]?
**A.** 4268 (27) ng × hours/mL

**Q.** And the Cmax [5, 17]?
**A.** 885 (27) ng/mL

**Q.** And the “Median Tmax (minimum–maximum)” value [5, 18]?
**A.** 3 (0.5, 4) hours

**Q.** And the “AUC0–24” value [5, 18]?
**A.** 7871 (56) ng × hours/mL

**Q.** What about the “AUC0–t” value [5, 18] of the same compound?
**A.** 7871(56) ng × hours/mL

**Q.** What about the Cmax [5, 18] of the same compound?
**A.** 865 (66) ng/mL

**Q.** What about the Ctrough [5, 18] of the same compound?
**A.** 218(59) ng/mL

**Q.** And the t1/2 [5, 18]?
**A.** 32.1(11.7) hours

**Q.** What about the “Median Tmax (minimum–maximum)” value [5, 19] of the same compound?
**A.** 3 (0.5, 4) hours

**Q.** And the “AUC0–24” value [5, 19]?
**A.** 7871 (56) ng × hours/mL

**Q.** What about the Cmax [5, 19] of the same compound?
**A.** 865 (66) ng/mL

**Q.** What about the “Df (degree of fluctuation)” value [5, 19] of the same compound?
**A.** 204 (36) %

**Q.** And the t1/2 [5, 19]?
**A.** 64.2 (14.8) hours

**Q.** What about the “Median Tmax (minimum–maximum)” value [5, 20] of the same compound?
**A.** 3.5 (2, 4) hours

**Q.** What about the “AUC0–24” value [5, 20] of the same compound?
**A.** 8055 (34) ng × hours/mL

**Q.** And the “AUC0–t” value [5, 20]?
**A.** 8055 (34) ng × hours/mL

**Q.** What about the Cmax [5, 20] of the same compound?
**A.** 1447 (39) ng/mL

**Q.** What about the t1/2 [5, 20] of the same compound?
**A.** 10.6 (3.3) hours

**Q.** What about the “Median Tmax (minimum–maximum)” value [5, 21] of the same compound?
**A.** 3 (2, 4) hours

**Q.** What about the Cmax [5, 21] of the same compound?
**A.** 1461 (24) ng/mL

**Q.** And the Ctrough [5, 21]?
**A.** 205(63) ng/mL

**Q.** What about the t1/2 [5, 21] of the same compound?
**A.** 16.3(7.6) hours

**Q.** What about the “Median Tmax (minimum–maximum)” value [5, 22] of the same compound?
**A.** 3 (2, 4) hours

**Q.** And the Cmax [5, 22]?
**A.** 1461 (24) ng/mL

**Q.** And the “Df (degree of fluctuation)” value [5, 22]?
**A.** 265 (33) %

**Q.** And the t1/2 [5, 22]?
**A.** 67.3 (24.2) hours

**Q.** What about the “accumulation rate with AUC0–24 (day 28 vs day 1)” value ([5]; cohorts A and B) of the same compound?
**A.** 1.6–2.0

**Q.** What about the “accumulation rate with Cmax (day 28 vs day 1)” value ([5]; cohorts A and B) of the same compound?
**A.** 1.1–1.2

**Q.** What about the accumulation rate ([5]; cohorts A and B, day 28 vs day 1, AUC0–24 or Cmax) of the same compound?
**A.** 1.1–2.0

**Q.** And the “time to maximum GLS4 concentration (Tmax)” value ([5]; cohorts A and B, first and last dose (days 1 and 28), with ritonavir)?
**A.** 3–3.5 hours and ~ 3 hours

**Q.** And the “mean trough concentration (Ctrough) of GLS4” value ([5]; cohorts A and B, steady state, with ritonavir 100 mg/day)?
**A.** 205 to 218 ng/mL

**Q.** What about the “t1/2 of GLS4 when combined with ritonavir” value ([5]; patients, cohorts A and B) of the same compound?
**A.** 64.2 to 67.3 h

**Q.** And the “tolerability in patients with chronic HBV infection” value ([6]; 120 mg GLS4 (+ ritonavir 100 mg), 28 days)?
**A.** tolerated

**Q.** And the “frequency of grade 3–4 adverse reactions” value [6, 23]?
**A.** 2

**Q.** What about the “patients who experienced an adverse reaction” value [6, 23] of the same compound?
**A.** 5

**Q.** What about the “patients withdrawn due to ALT flare” value [6, 23] of the same compound?
**A.** 1 and 1/8

**Q.** And the “subjects with alanine aminotransferase flare” value [6, 23]?
**A.** 2 and 2/8

**Q.** And the “frequency of grade 3–4 adverse reactions” value [6, 24]?
**A.** 7

**Q.** What about the “patients who experienced an adverse reaction” value [6, 24] of the same compound?
**A.** 6

**Q.** And the “patients withdrawn due to ALT flare” value [6, 24]?
**A.** 2 and 2/8

**Q.** And the “presence of SAEs” value [6, 24]?
**A.** 1

**Q.** What about the “subjects with alanine aminotransferase flare” value [6, 24] of the same compound?
**A.** 3 and 3/8

**Q.** What about the “decline in HBV DNA levels in patients with poor response” value (HBV [7]; cohort A (GLS4 120 mg/day + ritonavir 100 mg/day), patients 003, 005 and 022) of the same compound?
**A.** < 0.5 log10 IU/mL

**Q.** And the “mean decline in HBV DNA after 28 days of treatment” value (HBV [7]; [15])?
**A.** −1.42 log10 IU/mL

**Q.** What about the “mean decline in HBV DNA after 28 days of treatment” value (HBV [7]; [16]) of the same compound?
**A.** −2.13 log10 IU/mL

**Q.** What about the “mean change in HBV DNA following GLS4 treatment” value (HBV [7]; cohorts A and B (GLS4 120 or 240 mg/day + ritonavir 100 mg/day, 28 days)) of the same compound?
**A.** −1.42 to −2.13 log10 IU/mL

**Q.** And the “mean decline in HBcrAg after 28 days of treatment” value (HBV [8]; [15])?
**A.** −0.23 log10 U/mL

**Q.** What about the “mean decline in HBcrAg after 28 days of treatment” value (HBV [8]; [16]) of the same compound?
**A.** −0.5 log10 U/mL and −0.50 log10 U/mL

**Q.** What about the “90% effective concentration (EC90)” value (HBV in HepG2.2.15 cell; HepG2.2.15 cell, after correction with Human plasma protein binding) of the same compound?
**A.** 0.0558 µg/mL

**Q.** And the “anti-HBV activity in vitro compared with Bay 41–4109” value (HBV in HepG2.2.15 cell; in vitro)?
**A.** better anti-HBV activity in vitro than Bay 41–4109

**Q.** And the tolerability [9]?
**A.** well tolerated

**Q.** And the “mean decline in HBeAg after 28 days of treatment” value (HBV [10]; [15])?
**A.** −0.25 log10 IU/mL

**Q.** What about the “mean decline in HBeAg after 28 days of treatment” value (HBV [10]; [16]) of the same compound?
**A.** −0.30 log10 IU/mL

**Q.** And the “tolerability of GLS4 (120 or 240 mg) in combination with 100 mg ritonavir” value [11]?
**A.** tolerated

**Q.** What about the “mean steady-state Cmin” value ([12]; GLS4 120 mg/day + ritonavir 100 mg/day for 9 days) of the same compound?
**A.** 187.9 ng/mL

**Q.** What about the “mean steady-state Cmin” value ([12]; GLS4 240 mg/day + ritonavir 100 mg/day for 9 days) of the same compound?
**A.** 300.7 ng/mL

**Q.** And the “t1/2 of GLS4 monotherapy” value ([12]; without ritonavir, data not shown)?
**A.** 1.09 to 15.8 h

**Q.** What does the source list for `O=C(Nc1cc(F)c(F)c(F)c1)c1ccc(F)c(S(=O)(=O)N2CCC(O)CC2)c1` [NVR 3–778]?
**A.** mean change in HBV DNA (HBV [13]): −1.43 log10 IU/mL; mean decline in HBeAg (HBV [13]): −0.09 log10 IU/mL; mean decline in HBsAg (HBV [13]): −0.02 log10 IU/mL

**Q.** What does the source list for `C=C1[C@H](CO)[C@@H](O)C[C@@H]1n1cnc2c(=O)[nH]c(N)nc21` [entecavir, reference compound]?
**A.** mean decline in HBsAg after 28 days of treatment (HBV [3]; cohort C: entecavir 0.5 mg/day): −0.33 log10 IU/mL; mean decline in pgRNA after 28 days of treatment (HBV [4]; cohort C: entecavir 0.5 mg/day): −0.96 log10 copies/mL; patients who experienced an adverse reaction [6, 25]: 7; patients withdrawn due to ALT flare [6, 25]: 1; subjects with alanine aminotransferase flare [6, 25]: 3; mean decline in HBV DNA after 28 days of treatment (HBV [7]; cohort C: entecavir 0.5 mg/day): −3.5 log10 IU/mL; mean decline in HBcrAg after 28 days of treatment (HBV [8]; cohort C: entecavir 0.5 mg/day): −0.44 log10 U/mL

**Q.** Which antiviral effects (HBV [14]) does the source give for `N[C@@H](CCC(=O)N[C@@H](CS)C(=O)NCC(=O)O)C(=O)O` [glutathione, reference compound] here?
**A.** no antiviral effects

**Q.** And the “effect of silibinin and glutathione treatment on ALT flares” value [6]?
**A.** effective in reducing ALT flares

**Q.** With `COc1cc(C2Oc3cc([C@H]4Oc5cc(O)cc(O)c5C(=O)[C@@H]4O)ccc3OC2CO)ccc1O` (some centres unmarked) [silibinin, reference compound] as the compound, how does the antiviral effects (HBV [14]) read?
**A.** no antiviral effects

**Q.** And the “effect of silibinin and glutathione treatment on ALT flares” value [6]?
**A.** effective in reducing ALT flares
